Source: patent publication US20050282818A1, “Ubiquitin ligase inhibitors” (Rigel Pharmaceuticals, Inc., priority 2004, published 2005)

Molecular target: T1, TRAF6/Uev1A/Ubc13 (Homo sapiens, UniProt Q9Y4K3)
T1 sequence (Q9Y4K3 1-522): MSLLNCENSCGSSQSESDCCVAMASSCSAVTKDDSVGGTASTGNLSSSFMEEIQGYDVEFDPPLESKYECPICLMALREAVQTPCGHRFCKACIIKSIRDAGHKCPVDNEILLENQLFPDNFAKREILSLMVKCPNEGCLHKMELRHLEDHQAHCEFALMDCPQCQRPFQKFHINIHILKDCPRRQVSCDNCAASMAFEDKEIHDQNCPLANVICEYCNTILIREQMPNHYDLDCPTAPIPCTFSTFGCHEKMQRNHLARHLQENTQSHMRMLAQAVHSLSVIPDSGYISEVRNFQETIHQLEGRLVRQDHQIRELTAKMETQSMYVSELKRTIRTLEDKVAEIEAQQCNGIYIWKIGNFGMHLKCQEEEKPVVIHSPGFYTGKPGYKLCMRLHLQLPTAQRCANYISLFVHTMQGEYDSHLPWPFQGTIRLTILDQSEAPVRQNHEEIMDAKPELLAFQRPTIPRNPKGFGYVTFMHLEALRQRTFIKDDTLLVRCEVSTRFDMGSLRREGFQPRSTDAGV
Assay: TRAF6/Uev1A/Ubc13 plate-based ubiquitin ligase assay
Type: biochemical
Method: For the assays described below, the TRAF6/Uev1A/UBC13 assay is the biochemical plate-based assay of TRAF6 ligase activity using Ubc13 as the E2 enzyme. The gel-based assay is the biochemical solution-based TRAF6 ligase assay (by SDS-PAGE and Western blot) to confirm the plate-based ELISA assay. The APC assay is an assay which is another E3 ligase (APC2/APC11) biochemical assay.
A 96-well Ni-plate was blocked with 100 μl of 1% casein in PBS for 1 hour at room temperature. The plates were then washed three times with 200 μl of 1×PBS and 80 μl of a reaction buffer was added per well which contained 50 ng of Flag-ubiquitin, 50 ng of His-ubiquitin, 62.5 mM Tris pH 7.5, 6.25 mM MgCl2, 1.0 mM DTT, and 2 μM ATP. To each well was added 10 μl of a solution of the compound in DMSO. The reaction was started by adding 10 μl of a solution consisting of 10 ng human E1, 25 ng each of Uev1a and Ubc13, and 100 ng TRAF6 in the reaction buffer. The plates were shaken for 10 minutes and incubate at room temperature for 1 hour. After the incubation, the plates were washed three times with 200 μl 1×PBS in 0.05% Tween and 100 μl of an antibody mix consisting of anti-Flag (1:30,000 dilution; Sigma F-3165) and anti-Mouse IgG-HRP (1/150,000 dilution; Jackson Immunoresearch #115-035-146) in 1×PBS with 0.25% BSA. The plates were then incubated for another 1 hour at room temperature, and after incubation the plate was washed three times with 200 μl 1×PBS with 0.05% Tween. The amount of ubiquitin was measured by adding 100 μl of Lumino substrate (1:5 dilution) and reading the luminescence with a fluorimeter.
Table 2 below illustrates the inhibitory activity of the compounds of the invention determined by the TRAF6/Uev1A/Ubc13 assay as well as in the ICAM, APC and the ROC1/CUL1 Ubiquitin Ligase Assay (SCF Assay). The IC50 values were determined using a various concentrations of the compounds.

Compound | IC50 [µM]
O=S(=O)(Nc1cccc2nonc12)c1ccc(Oc2ccc3c(C(F)(F)F)cc(C(F)(F)F)nc3n2)cc1 [compound 81, N-2,1,3-benzoxadiazol-4-yl-4-{[5,7-bis(trifluoromethyl)-1,8-naphthyridin-2-yl]oxy}benzenesulfonamide] | ≥ 20
O=S(=O)(Nc1cccc2nsnc12)c1ccc(Oc2ccc(C(F)(F)F)cc2Cl)nc1 [compound 117, N-2,1,3-benzothiadiazol-4-yl-6-[2-chloro-4-(trifluoromethyl)phenoxy]pyridine-3-sulfonamide] | ≥ 20
O=[N+]([O-])c1ccc(N2CCN(c3ccc([N+](=O)[O-])c4nonc34)CC2)cc1 [compound 147, 4-nitro-7-[4-(4-nitrophenyl)piperazin-1-yl]-2,1,3-benzoxadiazole] | 1 to 20
CCOc1ccc2nc(NS(=O)(=O)c3ccc(Cl)c4nonc34)sc2c1 [compound 198, 7-chloro-N-(6-ethoxy-1,3-benzothiazol-2-yl)-2,1,3-benzoxadiazole-4-sulfonamide] | ≥ 20
O=[N+]([O-])c1ccc(N2CCSCC2)c2nonc12 [compound 237, 4-nitro-7-thiomorpholin-4-yl-2,1,3-benzoxadiazole] | ≥ 20
O=S(=O)(c1cccc2nsnc12)N1CCC(Oc2ccccc2C(F)(F)F)CC1 [compound 240, 4-({4-[2-(trifluoromethyl)phenoxy]piperidin-1-yl}sulfonyl)-2,1,3-benzothiadiazole] | ≥ 20
CC1(C)CCN(S(=O)(=O)c2ccc(Cl)c3nonc23)CC1 [compound 247, 4-chloro-7-[(4,4-dimethylpiperidin-1-yl)sulfonyl]-2,1,3-benzoxadiazole] | ≥ 20
COC(=O)c1ccc(NS(=O)(=O)c2ccc(Sc3ccc4ccccc4n3)c3nonc23)cc1 [compound 248, methyl 4-({[7-(quinolin-2-ylthio)-2,1,3-benzoxadiazol-4-yl]sulfonyl}amino)benzoate] | ≥ 20
O=S(=O)(c1ccc(Sc2ccc(O)cc2)c2nonc12)N1CCN(c2ccccc2)CC1 [compound 249, 4-({7-[(4-phenylpiperazin-1-yl)sulfonyl]-2,1,3-benzoxadiazol-4-yl}thio)phenol] | 1 to 20
COC(=O)c1ccc(NS(=O)(=O)c2ccc(N3CCSCC3)c3nonc23)cc1 [compound 250, methyl 4-{[(7-thiomorpholin-4-yl-2,1,3-benzoxadiazol-4-yl)sulfonyl]amino}benzoate] | ≥ 20
O=S(=O)(c1ccc(Sc2ccncc2)c2nonc12)N1CCN(c2ccccc2)CC1 [compound 251, 4-[(4-phenylpiperazin-1-yl)sulfonyl]-7-(pyridin-4-ylthio)-2,1,3-benzoxadiazole] | ≥ 20
O=S(=O)(c1ccc(Sc2ccc3ccccc3n2)c2nonc12)N1CCN(c2ccccc2)CC1 [compound 252, 2-({7-[(4-phenylpiperazin-1-yl)sulfonyl]-2,1,3-benzoxadiazol-4-yl}thio)quinoline] | ≥ 20
O=S(=O)(c1ccc(Sc2cccc3ccccc23)c2nonc12)N1CCN(c2ccccc2)CC1 [compound 253, 4-(1-naphthylthio)-7-[(4-phenylpiperazin-1-yl)sulfonyl]-2,1,3-benzoxadiazole] | 1 to 20
O=S(=O)(Nc1cccc(F)c1)c1ccc(F)c2nonc12 [compound 272, 7-fluoro-N-(3-fluorophenyl)-2,1,3-benzoxadiazole-4-sulfonamide] | ≥ 20
O=S(=O)(Nc1cccc(F)c1)c1ccc(Nc2cccc(F)c2)c2nonc12 [compound 273, N-(3-fluorophenyl)-7-[(3-fluorophenyl)amino]-2,1,3-benzoxadiazole-4-sulfonamide] | ≥ 20
Cc1cc(F)ccc1Nc1ccc(S(=O)(=O)Nc2ccc(F)cc2C)c2nonc12 [compound 275, N-(4-fluoro-2-methylphenyl)-7-[(4-fluoro-2-methylphenyl)amino]-2,1,3-benzoxadiazole-4-sulfonamide] | 1 to 20

Compound | IC50 [µM]
Cc1cc(F)ccc1NS(=O)(=O)c1ccc(F)c2nonc12 [compound 276, 7-fluoro-N-(4-fluoro-2-methylphenyl)-2,1,3-benzoxadiazole-4-sulfonamide] | 1 to 20
COC(=O)c1ccc(NS(=O)(=O)c2ccc(Oc3cccc4cccnc34)c3nonc23)cc1 [compound 277, methyl 4-({[7-(quinolin-8-yloxy)-2,1,3-benzoxadiazol-4-yl]sulfonyl}amino)benzoate] | ≥ 20
FC(F)(F)c1cnc(N2CCN(c3ccc(N4CCOCC4)c4nonc34)CC2)c(Cl)c1 [compound 282, 4-{4-[3-chloro-5-(trifluoromethyl)pyridin-2-yl]piperazin-1-yl}-7-morpholin-4-yl-2,1,3-benzoxadiazole] | ≥ 20
O=[N+]([O-])c1ccc(N2CCC(S(=O)(=O)c3ccccn3)CC2)c2nonc12 [compound 289, 4-nitro-7-[4-(pyridin-2-ylsulfonyl)piperidin-1-yl]-2,1,3-benzoxadiazole] | ≥ 20
O=[N+]([O-])c1ccc(S(=O)(=O)c2cccc3cccnc23)c2nonc12 [compound 290, 8-[(7-nitro-2,1,3-benzoxadiazol-4-yl)sulfonyl]quinoline] | ≥ 20
CCN(CC)c1cc(N2CCN(c3ccc(Cl)c(C(F)(F)F)c3)CC2)c2nonc2c1[N+](=O)[O-] [compound 292, 7-{4-[4-chloro-3-(trifluoromethyl)phenyl]piperazin-1-yl}-N,N-diethyl-4-nitro-2,1,3-benzoxadiazol-5-amine] | ≥ 20
CCN(CC)c1cc(N2CCN(c3ncc(C(F)(F)F)cc3Cl)CC2)c2nonc2c1[N+](=O)[O-] [compound 293, 7-{4-[3-chloro-5-(trifluoromethyl)pyridin-2-yl]piperazin-1-yl}-N,N-diethyl-4-nitro-2,1,3-benzoxadiazol-5-amine] | ≥ 20
CCN(CC)c1cc(N2CCN(c3ncccc3C#N)CC2)c2nonc2c1[N+](=O)[O-] [compound 294, 2-{4-[6-(diethylamino)-7-nitro-2,1,3-benzoxadiazol-4-yl]piperazin-1-yl}nicotinonitrile] | ≥ 20
O=[N+]([O-])c1c(N2CCCCC2)cc(N2CCN(c3ccc(Cl)c(C(F)(F)F)c3)CC2)c2nonc12 [compound 295, 7-{4-[4-chloro-3-(trifluoromethyl)phenyl]piperazin-1-yl}-4-nitro-5-piperidin-1-yl-2,1,3-benzoxadiazole] | ≥ 20
O=[N+]([O-])c1c(N2CCCCC2)cc(N2CCN(c3ncc(C(F)(F)F)cc3Cl)CC2)c2nonc12 [compound 296, 7-{4-[3-chloro-5-(trifluoromethyl)pyridin-2-yl]piperazin-1-yl}-4-nitro-5-piperidin-1-yl-2,1,3-benoxadiazole] | 1 to 20
N#Cc1cccnc1N1CCN(c2cc(N3CCCCC3)c([N+](=O)[O-])c3nonc23)CC1 [compound 297, 2-[4-(7-nitro-6-piperidin-1-yl-2,1,3-benzoxadiazol-4-yl)piperazin-1-yl]nicotinonitrile] | ≥ 20
CCN(CC)c1cc(N2CCC3(CC2)OCc2ccccc23)c2nonc2c1[N+](=O)[O-] [compound 298, N,N-diethyl-4-nitro-7-(1′H,3H-spiro[2-benzofuran-1,4′-piperidin]-1′-yl)-2,1,3-benzoxadiazol-5-amine] | ≥ 20
CCN(CC)c1cc(N2CCC(O)(c3ccccc3)CC2)c2nonc2c1[N+](=O)[O-] [compound 299, 1-[6-(diethylamino)-7-nitro-2,1,3-benzoxadiazol-4-yl]-4-phenylpiperidin-4-ol] | ≥ 20
O=[N+]([O-])c1c(N2CCCCC2)cc(N2CCC3(CC2)OCc2ccccc23)c2nonc12 [compound 300, 1′-(7-nitro-6-piperidin-1-yl-2,1,3-benzoxadiazol-4-yl)-3H-spiro[2-benzofuran-1,4′-piperidine]] | ≥ 20
O=[N+]([O-])c1c(N2CCCCC2)cc(N2CCC(O)(c3ccccc3)CC2)c2nonc12 [compound 301, 1-(7-nitro-6-piperidin-1-yl-2,1,3-benzoxadiazol-4-yl)-4-phenylpiperidin-4-ol] | ≥ 20
